Measured values as given in PubChem BioAssay (NCI).
Where “and” joins values, the source holds several entries; their conditions need not be identical. Identical values can stand only once.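 Exposure lasted 48 hours, with cells grown in 96-well plates and compounds tested at five concentrations. GI50 = concentration required for 50% inhibition of growth. At the TGI there is no net growth.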

Key:
Experiment in all cases: inhibition of tumour cell growth, NCI panel, 48 h
[1] = test system: MOLT-4 leukemia
[2] = test system: HS 578T breast
[3] = test system: UACC-257 melanoma
[4] = test system: BT-549 breast
[5] = test system: RPMI-8226 leukemia
[6] = test system: HCC-2998 colon
[7] = test system: SR leukemia
[8] = test system: HOP-92 NSCLC
[9] = test system: SNB-19 CNS
[10] = test system: A549 NSCLC

Structure (SMILES)	TGI [1]	TGI [2] [µM]	TGI [3] [µM]	TGI [4] [µM]	TGI [5]	TGI [6] [µM]	TGI [7]	TGI [8] [µM]	TGI [9] [µM]	TGI [10] [µM]	GI50 [3]	GI50 [7]
O=c1c(-c2ccccc2)c(SCCN2CCCCCC2)n(-c2ccccc2)c(=S)n1-c1ccccc1	57.5 µM	> 100	> 100	> 100	> 100 µM	12.9	84.5 µM	> 100				
C=C(C)[C@H]1CC(=O)/C(C)=C\CC/C(C)=C/CC[C@@]2(C)O[C@@H]2C1	> 100 µM	> 100	> 100	> 100	52.1 µM	93.1	> 100 µM	> 100	> 100	34.5		
COc1ccc(C2SC(N)=Nc3c2c(C)nn3C(=O)c2ccc(Cl)cc2)cc1OC (stereo not drawn)	> 10 µM	> 10	> 10	> 10	> 10 µM	> 10	> 10 µM	> 10	> 10	> 10		
C#CCOCC12C=CC(O1)C1COC(=O)C12 (stereo not drawn)	> 100 µM	> 100	> 100	> 100	> 100 µM	> 100	> 100 µM	> 100	> 100	> 100		
Cc1nnc2n1-c1ccccc1N(Cc1ccccc1)CC2	89.5 µM	> 100	> 100	76.2	58.3 µM	> 100	> 100 µM	51.9	> 100	> 100		
Cc1ccc(C(=O)Cc2nc3c([nH]c2=O)c(C)nn3-c2ccccc2)c(C)c1	> 10 µM	> 10	> 10	> 10	> 10 µM	> 10	> 10 µM	> 10	> 10	> 10		
C[n+]1c(-c2ccc(NC(=O)c3ccc(C(=O)Nc4ccc(-c5cn6ccccc6[n+]5C)cc4)cc3)cc2)cn2ccccc21	> 100 µM	> 100	> 100	> 100	> 100 µM	> 100	> 100 µM	> 100	> 100	> 100		
COc1cc2c3c(cc(Cl)nc3c1OC)C(=O)C(=O)N2	> 31.2 µM	> 100	21.9	29.8	> 100 µM	33.6	> 29.6 µM	3.44	42.6	38.6		
CCCCCCCCCCCCNC(=O)CCC(NC(=O)c1ccc(N(C)Cc2cnc3nc(N)nc(N)c3n2)cc1)C(=O)NCCCCCCCCCCCC (stereo not drawn)	> 100 µM	> 100	> 100	> 100	> 100 µM	> 100	32.3 µM	30.9	72.1	> 100		
Cc1cn(CCCCCOC(=O)NC(CCCNC(N)=O)C(=O)O)c(=O)[nH]c1=O (stereo not drawn)	> 100 µM	> 100	> 100	> 100	> 100 µM	> 100	> 100 µM	> 100	> 100	> 100		
Cc1ccc(S(=O)(=O)c2c(O)c3ccc(O)c(C)c3oc2=O)cc1	> 100 µM	> 100	> 100	> 100	> 100 µM	> 100	> 100 µM	> 100	> 100	> 100		
O=C(Sc1c(-c2ccccc2)c(=O)n(-c2ccccc2)c(=S)n1-c1ccccc1)c1ccco1	> 100 µM	> 100	> 31.6	> 100	> 83.7 µM	> 100	> 78.9 µM	> 92.6	> 100	> 100		
CCOc1ccc(NCC2CC/C(=C\C=C\c3ccccc3)C2=O)cc1 (stereo not drawn)	> 42.9 µM	65.2	38.4	33	> 100 µM	> 72.4	> 33.3 µM	45.5	60.9	> 100		
Cc1cccc(NS(=O)(=O)c2ccc(N=Nc3c(O)c(C(=O)O)cc4ccccc34)cc2)n1	> 100 µM	> 100	> 100	> 100	> 100 µM	> 100	> 100 µM	> 100	> 100	> 100		
O=C(/C=C\Nc1ccccc1O)C(F)(F)F	> 100 µM	> 100	> 100	> 100	> 100 µM	> 100	> 100 µM	> 100	> 100	> 100		
CC1(C)OC[C@@H](C[C@H](O)COCc2ccccc2)O1	> 100 µM	> 100	> 100	> 100	> 100 µM	> 100	> 100 µM	> 100	> 100	> 100		

Structure (SMILES)	TGI [1]	TGI [2] [µM]	TGI [3] [µM]	TGI [4] [µM]	TGI [5]	TGI [6] [µM]	TGI [7]	TGI [8] [µM]	TGI [9] [µM]	TGI [10] [µM]	GI50 [3]	GI50 [7]
CCC(=O)Nc1ccc(NS(=O)(=O)c2ccc(Cl)cc2)cc1	> 100 µM	> 100	> 100	> 100	54.3 µM	> 100	> 100 µM	> 100	> 100	> 100		
COc1cc2c3cc1Oc1c(OC)c(OC)cc4c1C(Cc1ccc(O)c(c1)Oc1ccc(cc1)CC3N(C)CC2)CN(C)C4 (stereo not drawn)	54.5 µM	38.9	27.1	30.2	47.6 µM	13.7	41.7 µM	43.4	84.5	63.9		
O=C1/C(=C/c2ccncc2)C(n2cccc2)c2c(Br)sc(Br)c21 (stereo not drawn)	4.64 µM	18.1	5.03	16.8	7.2 µM	3.45	9.51 µM	7.83	30.6	34.5		
O=C(O)C1=NN(c2ccc(S(=O)(=O)O)cc2)C2(C1)C(Cl)C(=O)N2c1nc2ccccc2s1 (stereo not drawn)	39.6 µM	> 100	37.2	33	35.6 µM	33.4	24.5 µM	48.8	64.8	35.2		
Nc1nncc2[nH]cnc12	> 45.3 µM	> 100	> 100	77.4	> 56 µM	> 100	> 100 µM	> 100	> 100	> 100		
CC(=O)OCC(=O)O[C@@H]1[C@H]2[C@@H](OC(=O)c3ccccc3)[C@@H](C)C[C@]2(O)[C@H](OC(C)=O)[C@@]2(C)C[C@]1(OC(C)=O)C[C@H]1C(=O)C(C)(C)[C@@H](OC(C)=O)[C@@H]12	> 25 µM	> 25	> 25	> 25	> 25 µM	> 25	> 25 µM	> 25	> 25	> 25		
NCCN(CCN(C(=O)Nc1ccccc1)c1ccccc1)C(=O)Nc1ccccc1	> 100 µM	56	36.4	69.4	> 100 µM	44.3	> 100 µM	44.2	> 100	> 100		
O=C1CS/C(=N/N=C/c2cn(Cc3ccc(Cl)cc3Cl)c3ccccc23)N1	> 100 µM	83.6	> 100	> 100	> 100 µM	92.3	> 100 µM	> 100	> 100	> 100		
COc1cc2[nH]c(=O)c3cc(-c4ccccc4)cc4c(Cl)nc(c1OC)c2c43	> 44.7 µM	> 100	21.6	> 67	> 100 µM	> 86.4	> 100 µM	> 79.3	> 82.8	> 71.7		
COc1ccc2c(c1)-c1c(c3cc(OC)ccc3n1CCN(C)C)CC2	33.8 µM	28	29.4	26.9	31.2 µM	20.2	25.1 µM	27.7		29.9		
Clc1ccc(OCc2nnc(COc3ccc(OCc4nnc(COc5ccc(Cl)cc5Cl)o4)c(Cl)c3)o2)c(Cl)c1		> 100	> 100	> 100	39.6 µM	97.3	36.6 µM	33.5	> 100	> 100		
Cc1cc(S(=O)(=O)Nc2n[nH]c(Nc3ccccc3)n2)c(SCC(=O)O)cc1Cl	> 100 µM	> 100	> 100	> 100	> 100 µM	> 100	> 100 µM	> 100	> 100	> 100		
CCOc1ccc(N=Nc2ccc3cc(/C(C)=N/NC(=O)/C(C#N)=C\c4ccc(N(CCC#N)CCC#N)cc4)c(=O)oc3c2)cc1	> 10 µM	> 10	> 10	> 10	> 10 µM	> 10	> 10 µM	> 10	> 10	> 10		
COc1ccc(C2Oc3c(OC)cc(CCCO)cc3C2CO)cc1OC (stereo not drawn)	96.7 µM and > 100 µM	> 100	> 100	> 100	60.4 µM and > 100 µM	> 100	55.5 µM and > 100 µM	> 100	> 100	> 100	49.9 µM and 21.9 µM	13.4 µM and > 100 µM
NC(Cc1[nH]nc2ccccc12)C(=O)O (stereo not drawn)	> 100 µM	> 100	> 100	> 100	> 100 µM	> 100	> 100 µM	> 100	> 100	> 100		
